From ChEMBL document CHEMBL4627307, “One-pot synthesis of thioxo-tetrahydropyrimidine derivatives as potent β-glucuronidase inhibitor, biological evaluation, molecular docking and molecular dynamics studies” (Bioorg Med Chem, 2020)

Target: T1, Beta-glucuronidase (Homo sapiens, UniProt P08236)
T1 sequence (P08236 whole entry): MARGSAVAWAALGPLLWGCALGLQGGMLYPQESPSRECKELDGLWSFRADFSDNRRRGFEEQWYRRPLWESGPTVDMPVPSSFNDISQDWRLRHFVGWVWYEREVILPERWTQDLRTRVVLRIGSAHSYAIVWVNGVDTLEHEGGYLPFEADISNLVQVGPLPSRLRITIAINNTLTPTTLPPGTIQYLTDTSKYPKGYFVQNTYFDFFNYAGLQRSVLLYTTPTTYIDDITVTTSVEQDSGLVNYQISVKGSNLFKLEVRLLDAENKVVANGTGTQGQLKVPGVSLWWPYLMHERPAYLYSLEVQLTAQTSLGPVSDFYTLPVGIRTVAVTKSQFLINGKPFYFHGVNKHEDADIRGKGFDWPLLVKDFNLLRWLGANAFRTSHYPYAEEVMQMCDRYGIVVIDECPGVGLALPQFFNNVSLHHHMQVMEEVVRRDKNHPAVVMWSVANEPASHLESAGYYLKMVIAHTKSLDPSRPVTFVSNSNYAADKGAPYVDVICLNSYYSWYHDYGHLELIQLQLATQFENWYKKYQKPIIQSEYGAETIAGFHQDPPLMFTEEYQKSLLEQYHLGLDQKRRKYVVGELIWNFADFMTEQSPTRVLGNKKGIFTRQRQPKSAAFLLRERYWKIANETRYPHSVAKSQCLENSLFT
Assay: Inhibition of beta-glucuronidase (unknown origin) using p-nitrophenyl-beta-D-glucuronide as substrate pre-incubated for 30 mins followed by substrate addition by spectrophotometric method

- IC50: 350 nM
Compound: CCN(CC)C(=O)C1=C(C)N=C(S)NC1c1cccs1 (stereo unspecified)
